The values that follow come from US20050197350A1, “Novel quinoline, tetrahydroquinazoline, and pyrimidine derivatives and methods of treatment related to the use thereof” (TAISHO PHARMACEUTICAL CO., LTD., priority 2003, published 2005).

pIC50: −log10 of the molar value. Counter-ions that a name gives are not always drawn. Like-named read-outs stand apart in the source and are kept apart here.

This test has as its target MCH receptor (Homo sapiens, UniProt Q99705). Briefly: High throughput functional screening FLIPR/FDSS6000 (intracellular Ca2+ evoked by MCH). The settings on record: FLIPR/FDSS, antagonist activity vs 50 nM MCH, class by percent of control at 10^−7 M or IC50, read-out: class. It is filed as cell-based. The gist of the method:
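For antagonist testing, compound-treated cells (30 min, 37 °C) were stimulated with 50 nM MCH and intracellular Ca2+ followed by Fluo4 fluorescence on FLIPR/FDSS6000. Receptor was a constitutively active, non-endogenous MCH receptor; dye loading 4 μM Fluo4-AM, 1 h, 37 °C.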

For the compound `O=C(N[C@H]1CC[C@@H](Nc2ccc3ccccc3n2)CC1)c1cccc(OC(F)(F)F)c1` [Example 3149, N-[cis-4-(Quinolin-2-ylamino)-cyclohexyl]-3-trifluoromethoxy-benzamide hydrochloride], the pIC50 (table after the classification) is 6.70 to 7.30.

Regarding `Cc1cc(N(C)C)nc(N[C@H]2CC[C@@H](NC(=O)NC(C)(C)c3ccc(Cl)cc3)CC2)n1` [Example 3265, N-[1-(4-chlorophenyl)-1-methylethyl]-N′-(cis-4-{[4-(dimethylamino)-6-methylpyrimidin-2-yl]amino}cyclohexyl)urea], the pIC50 is 6.70 to 7.30. As for `CN(C)c1ccnc(N[C@H]2CC[C@@H](NC(=O)c3cc(C(C)(C)C)c(O)c(C(C)(C)C)c3)CC2)n1` [Example 3217, 3,5-Di-tert-butyl-N-[cis-4-(4-dimethylamino-pyrimidin-2-ylamino)-cyclohexyl]-4-hydroxy-benzamide hydrochloride], for the setting “table after the classification”, the pIC50 was over 7.30. As to `Cc1cnc(N[C@H]2CC[C@@H](NC(=O)N(C)c3ccccc3F)CC2)nc1N(C)C` [Example 3346, N′-(cis-4-{[4-(dimethylamino)-5-methylpyrimidin-2-yl]amino}cyclohexyl)-N-(2-fluorophenyl)-N-methylurea], the pIC50 was under 6.70. Same read-out and setting: the same measure for `Cc1cnc(N[C@H]2CC[C@@H](C(=O)N[C@@H](C)c3cc(C(F)(F)F)cc(C(F)(F)F)c3)CC2)nc1N(C)C` [Example 3293, cis-N-{(1S)-1-[3,5-bis(trifluoromethyl)phenyl]ethyl}-4-{[4-(dimethylamino)-5-methylpyrimidin-2-yl]amino}cyclohexanecarboxamide]: under 6.70. `CNc1nc(N[C@H]2CC[C@@H](NCCc3ccc(Br)cc3OC(F)(F)F)CC2)nc2c1CCCC2` [Example 10, N^2-{cis-4-[2-(4-Bromo-2-trifluorometboxy-phenyl)-ethylamino]-cyclohexyl}-N^4-methyl-5,6,7,8-tetrahydro-quinazoline-2,4-diamine dihydrochloride]: under “table after the classification”, the pIC50 is 6.70 to 7.30.

Regarding `Cc1cnc(N[C@H]2CC[C@@H](NC(=O)c3ccc(Cl)c(F)c3)CC2)nc1N(C)C` [Example 3387, 4-Chloro-N-[cis-4-(4-dimethylamino5-methyl-pyrimidin-2-ylamino)-cyclohexyl]3-fluoro-benzamide hydrochloride], the pIC50 (table after the classification) was over 7.30. On to `CN(C)c1cc(N[C@H]2CC[C@@H](NCc3ccc(Br)cc3OC(F)(F)F)CC2)nc2ccccc12` [Example 5, N^2-[cis-4-(4-Bromo-2-trifluoromethoxy-benzyl)-amino-cyclohexyl]-N^4,N^4-dimethyl-quinoline-2,4-diamine dihydrochloride], for which, where the note is “table after the classification”, the pIC50 is 6.70 to 7.30.

Consider `Cc1cnc(N[C@H]2CC[C@@H](C(=O)N[C@H](C)c3ccccc3F)CC2)nc1N(C)C` [Example 3294, cis-4-{[4-(dimethylamino)-5-methylpyrimidin-2-yl]aminol}-N-[(1R)-1-(2-fluorophenyl)ethyl]cyclohexanecarboxamide], for which the pIC50 was under 6.70. With `O=C(N[C@H]1CC[C@@H](Nc2nccc(C(F)(F)F)n2)CC1)c1cccnc1Oc1ccccc1` [Example 3133, 2-Phenoxy-N-[cis-4-(4-trifluoromethyl-pyrimidin-2-yl)-amino-cyclohexyl]-nicotinamide hydrochloride], under “table after the classification”, the pIC50 was under 6.70. As for `O=C(N[C@H]1CC[C@@H](Nc2ccc3ccccc3n2)CC1)C1c2ccccc2Oc2ccccc21` [Example 3043, 9H-Xanthene-9-carboxylic acid [cis-4-(quinolin-2-ylamino)-cyclohexyl]-amide hydrochloride], the pIC50 (table after the classification) is over 7.30. `Cc1cnc(N[C@H]2CC[C@@H](C(=O)NC(C)(C)c3ccc(Cl)cc3)CC2)nc1N(C)C` [Example 3273, cis-N-[1-(4-chlorophenyl)-1-methylethyl]-4-{[4-(dimethylamino)-5-methylpyrimidin-2-yl]amino}cyclohexanecarboxamide]: the pIC50 was 6.70 to 7.30.

In the case of `N#Cc1cccc(C(=O)N[C@H]2CC[C@@H](Nc3ccc4ccccc4n3)CC2)c1` [Example 3049, 3-Cyano-N-[cis-4-(quinolin-2-ylamino)-cyclohexyl]-benzamide hydrochloride], the pIC50 (table after the classification) was over 7.30. Same read-out and setting: the figure for `CN(C)c1ccnc(N[C@H]2CC[C@@H](NC(=O)c3cc(Cl)ccn3)CC2)n1` [Example 3213, 4-Chloro-pyridine-2-carboxylic acid [cis-4-(4-dimethylamino-pyrimidin-2-ylamino)-cyclohexyl]-amide hydrochloride] is under 6.70; for `Cc1cnc(N[C@H]2CC[C@@H](NC(=O)c3ccc(F)c(Cl)c3)CC2)nc1N(C)C` [Example 3228, 3-Chloro-N-[cis-4-(4-dimethylamino-5-methyl-pyrimidin-2-ylamino)-cyclohexyl]-4-fluoro-benzamide hydrochloride] it is over 7.30. With `COc1ccccc1NC(=O)N[C@H]1CC[C@@H](Nc2ncc(C)c(N(C)C)n2)CC1` [Example 3321, N-(cis-4-{[4-(dimethylamino)-5-methylpyrimidin-2-yl]amino}cyclohexyl)-N′-(2-methoxyphenyl)urea], the pIC50 is 6.70 to 7.30. Consider `COc1cccc(OCC(=O)N[C@H]2CC[C@@H](Nc3cc(C)c4ccccc4n3)CC2)c1` [Example 3098, 2-(3-Methoxy-phenoxy)-N-[cis-4-(4-methyl-quinolin-2-ylamino)-cyclohexyl]-acetamide hydrochloride], for which the pIC50 (table after the classification) was over 7.30. For the compound `Cc1cc(N[C@H]2CC[C@@H](NC(=O)c3cc(F)cc(F)c3)CC2)nc2ccccc12` [Example 3166, 3,5-Difluoro-N-[cis-4-(4-methylquinolin-2-ylamino)-cyclohexyl]-benzamide hydrochloride], the pIC50 (table after the classification) was over 7.30.

On to `CN(C)c1nc(N[C@H]2CC[C@@H](CNC(=O)Nc3cccc(Cl)c3Cl)CC2)nc2c1CCCC2` [Example 3196, 1-(2,3-Dichloro-phenyl)-3-[cis-4-(4-dimethylamino-5,6,7,8-tetrahydro-quinazolin-2-ylamino)-cyclohexylmethyl]-urea hydrochloride], for which, for the setting “table after the classification”, the pIC50 is 6.70 to 7.30. Same read-out and setting: the same measure for `Cc1cnc(N[C@H]2CC[C@@H](CNC(=O)Nc3cccc(Cl)c3Cl)CC2)nc1N(C)C` [Example 3125, 1-(2,3-Dichloro-phenyl)-3-[cis-4-(4-dimethylamino-5-methyl-pyrimidin-2-ylamino)-cyclohexylmethyl]-urea hydrochloride]: over 7.30. On the same count and under the same terms, the figure for `Nc1cc(N[C@H]2CC[C@@H](NC(=O)c3ccc(F)c(F)c3)CC2)nc2ccccc12` [Example 3235, N-[cis-4-(4-Amino-quinolin-2-ylamino)-cyclohexyl]-3,4-difluoro-benzamide hydrochloride] is over 7.30. For the compound `Cc1cnc(N[C@H]2CC[C@@H](NC(=O)Nc3ccc(Cl)c(Cl)c3)CC2)nc1N(C)C` [Example 3337, N-(3,4-dichlorophenyl)-N′-(cis-4-{[4-(dimethylamino)-5-methylpyrimidin-2-yl]amino}cyclohexyl)urea], the pIC50 is 6.70 to 7.30.

With `Cc1cc(N[C@H]2CC[C@@H](NC(=O)CNc3ccc(Cl)c(Cl)c3)CC2)nc2ccccc12` [Example 3103, 2-(3,4-Dichloro-phenylamino)-N-[cis-4-(4-methyl-quinolin-2-ylamino)-cyclohexyl]-acetamide dihydrochloride], the pIC50 (table after the classification) was 6.70 to 7.30. Consider `CN(C)c1ccnc(N[C@H]2CC[C@@H](NC(=O)c3ccc(Cl)c(F)c3)CC2)n1` [Example 3207, 4-Chloro-N-[cis-4-(4-dimethylamino-pyrimidin-2-ylamino)-cyclohexyl]-3-fluoro-benzamide hydrochloride], for which the pIC50 (table after the classification) is over 7.30. In the case of `Cc1cccc(C(=O)N[C@H]2CC[C@@H](Nc3ncc(C)c(N(C)C)n3)CC2)c1` [Example 3121, N-[cis-4-(4-Dimethylamino-5-methyl-pyrimidin-2-ylamino)-cyclohexyl]-3-methyl-benzamide hydrochloride], the pIC50 (table after the classification) is over 7.30. On the same count and under the same terms, the same measure for `O=C(N[C@H]1CC[C@@H](Nc2cc(Cl)c3ccccc3n2)CC1)c1cccnc1Oc1ccccc1` [Example 3115, N-[cis-4-(4-Chloro-quinolin-2-ylamino)-cyclohexyl]-2-phenoxy-nicotinamide hydrochloride]: over 7.30; for `CN(C)c1nc(N[C@H]2CC[C@@H](NC(=O)c3ccc(F)c(F)c3)CC2)ncc1-c1ccccc1` [Example 3138, N-[cis-4-(4-Dimethylamino-5-phenyl-pyrimidin-2-ylamino)-cyclohexyl]-3,4-difluoro-benzamide hydrochloride]: 6.70 to 7.30; for `O=C(NC[C@H]1CC[C@@H](Nc2ccc3ccccc3n2)CC1)c1cccnc1Oc1ccccc1` [Example 3069, 2-Phenoxy-N-[cis-4-(quinolin-2-ylamino)-cyclohexylmethyl]-nicotinamide hydrochloride]: 6.70 to 7.30.

In the case of `CN(C)c1cc(N[C@H]2CC[C@@H](CNC(=O)c3ccc(F)c(F)c3)CC2)nc2ccccc12` [Example 3190, N-[cis-4-(4-Dimethylamino-quinolin-2-ylamino)-cyclohexylmethyl]-3,4-difluoro-benzamide hydrochloride], the pIC50 (table after the classification) is 6.70 to 7.30.

For the compound `CN(C)c1nc(N[C@H]2CC[C@@H](NC(=O)c3cc([N+](=O)[O-])cn3C)CC2)nc2c1CCCC2` [Example 3194, 1-Methyl-4-nitro-1H-pyrrole-2-carboxylic acid [cis-4-(4-dimethylamino-5,6,7,8-tetrahydro-quinazolin-2-ylamino)-cyclohexyl]-amide hydrochloride], the pIC50 (table after the classification) was over 7.30. Same read-out and setting: the figure for `CN(C)c1ccnc(N[C@H]2CC[C@@H](NC(=O)c3cccnc3Oc3ccc(F)cc3)CC2)n1` [Example 3201, N-[cis-4-(4-Dimethylamino-pyrimidin-2-ylamino)-cyclohexyl]-2-(4-fluoro-phenoxy)-nicotinamide hydrochloride] is over 7.30.
